Laboratory results from patent publication US20210052600A1, “THERAPEUTIC AGENTS FOR STRESS URINARY INCONTINENCE AND INCOTINENCE OF FECES” (Takeda Pharmaceutical Company Limited, priority 2017, published 2021).

Legend:
[1] = Body weight of obese rats (DIO-F344) under continuous subcutaneous administration and effective plasma concentration; type: in vivo, rat; details: for Change in body weight (% change): mean ± SEM
Experimental: Forty male DIO-F344 rats bred with high fat diet (42 kcal % fat) were used. On the day before surgery, the rats were grouped on the basis of their body weight. Compound A′ and Compound B′ were each dissolved in saline. Osmotic pumps filled with the Compound A′ or Compound B′ solution were subcutaneously implanted in the rats under isoflurane anesthesia. The body weight just after surgery was used as a Pre value, and the body weight was measured every day until 14 days after surgery. Regarding the averages in the body weight on Day 14, the difference in the mean averages of the drug-treated group and the vehicle-treated group was analyzed by the one-tailed Williams' test.
The average Day 14 plasma concentration from the values of each rat measured in the morning and afternoon was used as a plasma concentration for the animal. The rate of change in body weight was calculated from the values measured just after and 14 days after osmotic pump implantation. The rate (average rate) of change of the vehicle group was subtracted from that of each drug-administered rat to plot the plasma concentration and the change in body weight. The plasma concentration at which the drug lowered the body weight by 3.8% was calculated by linear regression analysis.

urethra-closing response = experiment: MT (threshold inducing urethra-closing response) under transcranial magnetic stimulation in healthy female volunteers; type: in vivo, human
Experimental: The test subjects were healthy female volunteers having a body weight of at least 45 kg (average: 50.91 kg, standard deviation: 3.346) and a BMI value of 18.5 kg/m^2 to 25.0 kg/m^2 (average: 19.57 kg/m^2, standard deviation: 0.929).
A washout period of at least 7 days was provided between the treatments.
A capsule containing 40 mg of duloxetine was orally administered as duloxetine together with water. A placebo capsule containing saccharose and spherical starch granules was orally administered as a placebo for duloxetine together with water.
Specifically, during the TMS, the output of a magnetic stimulator (Magstim Rapid Square, manufactured by Magstim Co., Ltd.) was increased by 5% each time using 110 mm double cone coil, and the minimum output at which urethra-closing response occurred abruptly was determined and used as MT (%). The urethra-closing response was detected by measuring contractile responses within the urethra. The contractile response within the urethra was measured using Duet Logic G2 (manufactured by Mediwatch Ltd.) and UniTip (manufactured by Unisensor AG). MT was measured again after administration of each drug, and the rate of change (%) from the baseline was calculated. The rate of change was determined by dividing MT after administration of each drug by MT before administration.

[2] = Plasma concentration of Compound A in healthy female volunteers after a single oral dose of Compound A′; details: no unit in table (ng/mL)
Experimental: In each period, the test subjects received any of Treatments A to D once according to Table 10, and change in the plasma concentration of the administered compound was measured over 24 hours after each Treatment.
Specifically, 100 mL of the injectable water containing 20 mg or 90 mg of Compound A′ based on its free form was supplemented with a sweetener, and this solution was orally administered as Compound A′. As a placebo for Compound A′, 100 mL of the injectable water was supplemented with a sweetener, and this solution was orally administered.

[3] = 20 mg single oral dose, Predose
[4] = 90 mg single oral dose, Predose

Structure (SMILES): CC(C)N(C)c1cnc2c(n1)OCCNC2.Cl [Compound A′, N-methyl-N-(1-methylethyl)-6,7,8,9-tetrahydropyrazino[2,3-f][1,4]oxazeine-3-amine]
- Change in body weight (% change) ([1]; 1.35 mg/animal/day s.c. osmotic pump, day 3): −1.5 ± 0.5 % change
- Change in body weight (% change) ([1]; 1.35 mg/animal/day s.c. osmotic pump, day 7): −2.3 ± 0.8 % change
- Change in body weight (% change) ([1]; 1.35 mg/animal/day s.c. osmotic pump, day 10): −4.5 ± 0.8 % change
- Change in body weight (% change) ([1]; 1.35 mg/animal/day s.c. osmotic pump, day 14): −4.7 ± 0.8 % change
- Change in body weight (% change) ([1]; 4.5 mg/animal/day s.c. osmotic pump, day 3): −0.6 ± 0.2 % change
- Change in body weight (% change) ([1]; 4.5 mg/animal/day s.c. osmotic pump, day 7): −2.4 ± 0.4 % change
- Change in body weight (% change) ([1]; 4.5 mg/animal/day s.c. osmotic pump, day 10): −3.9 ± 0.4 % change
- Change in body weight (% change) ([1]; 4.5 mg/animal/day s.c. osmotic pump, day 14): −4.6 ± 0.6 % change
- Change in body weight (% change) ([1]; 13.5 mg/animal/day s.c. osmotic pump, day 3): −2.7 ± 0.2 % change
- Change in body weight (% change) ([1]; 13.5 mg/animal/day s.c. osmotic pump, day 7): −4.8 ± 0.3 % change
- Change in body weight (% change) ([1]; 13.5 mg/animal/day s.c. osmotic pump, day 10): −6.9 ± 0.5 % change
- Change in body weight (% change) ([1]; 13.5 mg/animal/day s.c. osmotic pump, day 14): −7.8 ± 0.5 % change
- plasma concentration at which the drug lowered the body weight by 3.8% ([1]; DIO-F344 rats, day 14, vehicle-subtracted, linear regression analysis): 670 ng/mL
- maximum change from baseline in MT in response to TMS (urethra-closing response; 20 mg group, at 0.5 hours post dose): −8.1%
- MT of the urethra-closing response in response to TMS, Mean (urethra-closing response; 20 mg single oral dose, 0.5 hr): 58.1%
- Rate of change from baseline of MT of the urethra-closing response in response to TMS, Mean (urethra-closing response; 20 mg single oral dose, 0.5 hr): −8.1%
- MT of the urethra-closing response in response to TMS, Mean (urethra-closing response; 20 mg single oral dose, 2 hr): 59.0%
- Rate of change from baseline of MT of the urethra-closing response in response to TMS, Mean (urethra-closing response; 20 mg single oral dose, 2 hr): −7.3%
- MT of the urethra-closing response in response to TMS, Mean (urethra-closing response; 20 mg single oral dose, 6 hr): 64.2%
- Rate of change from baseline of MT of the urethra-closing response in response to TMS, Mean (urethra-closing response; 20 mg single oral dose, 6 hr): −2.1%
- MT of the urethra-closing response in response to TMS, Mean (urethra-closing response; [3]): 66.3%
- maximum change from baseline in MT in response to TMS (urethra-closing response; 90 mg group, at 3 hours post dose): −17.2%
- MT of the urethra-closing response in response to TMS, Mean (urethra-closing response; 90 mg single oral dose, 0.5 hr): 55.9%
- Rate of change from baseline of MT of the urethra-closing response in response to TMS, Mean (urethra-closing response; 90 mg single oral dose, 0.5 hr): −14.1%
- MT of the urethra-closing response in response to TMS, Mean (urethra-closing response; 90 mg single oral dose, 2 hr): 52.8%
- Rate of change from baseline of MT of the urethra-closing response in response to TMS, Mean (urethra-closing response; 90 mg single oral dose, 2 hr): −17.2%
- MT of the urethra-closing response in response to TMS, Mean (urethra-closing response; 90 mg single oral dose, 6 hr): 56.3%
- Rate of change from baseline of MT of the urethra-closing response in response to TMS, Mean (urethra-closing response; 90 mg single oral dose, 6 hr): −13.7%
- MT of the urethra-closing response in response to TMS, Mean (urethra-closing response; [4]): 70.0%
- plasma concentration of compound A, Mean ([2]; 20 mg single oral dose, 0.5 hr): 29.21
- plasma concentration of compound A, Median ([2]; 20 mg single oral dose, 0.5 hr): 28.40
- plasma concentration of compound A, Mean ([2]; 20 mg single oral dose, 1 hr): 25.19
- plasma concentration of compound A, Median ([2]; 20 mg single oral dose, 1 hr): 24.10
- plasma concentration of compound A, Mean ([2]; 20 mg single oral dose, 2 hr): 20.46
- plasma concentration of compound A, Median ([2]; 20 mg single oral dose, 2 hr): 19.20
- plasma concentration of compound A, Mean ([2]; 20 mg single oral dose, 3 hr): 14.38
- plasma concentration of compound A, Median ([2]; 20 mg single oral dose, 3 hr): 13.10
- plasma concentration of compound A, Mean ([2]; 20 mg single oral dose, 6 hr): 3.476
- plasma concentration of compound A, Median ([2]; 20 mg single oral dose, 6 hr): 3.760
- plasma concentration of compound A, Mean ([2]; 20 mg single oral dose, 8 hr): 1.416
- plasma concentration of compound A, Median ([2]; 20 mg single oral dose, 8 hr): 1.590
- plasma concentration of compound A, Mean ([2]; 20 mg single oral dose, 12 hr): 0.1327
- plasma concentration of compound A, Median ([2]; 20 mg single oral dose, 12 hr): 0.000
- plasma concentration of compound A, Mean [2, 3]: 0.000
- plasma concentration of compound A, Median [2, 3]: 0.000
- plasma concentration of compound A, Mean ([2]; 90 mg single oral dose, 0.5 hr): 127.3
- plasma concentration of compound A, Median ([2]; 90 mg single oral dose, 0.5 hr): 114.0
- plasma concentration of compound A, Mean ([2]; 90 mg single oral dose, 1 hr): 126.0
- plasma concentration of compound A, Median ([2]; 90 mg single oral dose, 1 hr): 113.0
- plasma concentration of compound A, Mean ([2]; 90 mg single oral dose, 2 hr): 152.8
- plasma concentration of compound A, Median ([2]; 90 mg single oral dose, 2 hr): 145.0
- plasma concentration of compound A, Mean ([2]; 90 mg single oral dose, 3 hr): 122.4
- plasma concentration of compound A, Median ([2]; 90 mg single oral dose, 3 hr): 127.0
- plasma concentration of compound A, Mean ([2]; 90 mg single oral dose, 6 hr): 52.81
- plasma concentration of compound A, Median ([2]; 90 mg single oral dose, 6 hr): 47.30
- plasma concentration of compound A, Mean ([2]; 90 mg single oral dose, 8 hr): 24.69
- plasma concentration of compound A, Median ([2]; 90 mg single oral dose, 8 hr): 20.30
- plasma concentration of compound A, Mean ([2]; 90 mg single oral dose, 12 hr): 5.612
- plasma concentration of compound A, Median ([2]; 90 mg single oral dose, 12 hr): 4.450
- plasma concentration of compound A, Mean [2, 4]: 0.000
- plasma concentration of compound A, Median [2, 4]: 0.000
